What was measured:
[1] = Total ROS generation inhibitory activity (rat kidney homogenate, DCFH-DA); format: biochemical; conditions: mean ± SEM of triplicate
Protocol: The generation of ROS was calculated using the ROS-sensitive fluorescence indicator (DCFH-DA) of 7-dichlorofluorescein diacetate. In a 50 mM potassium phosphate buffer, rat kidney homogenates (Tissue bank from Pusan National University, Busan, S. Korea) were prepared from the kidneys of newly killed male Wistar rats weighing between 150–200 g and 10 μg of each test sample was applied to 190 μL of kidney post mitochondrial fraction. The mixture was loaded in a potassium phosphate buffer with 50 μL of DCFH-DA (12.5 mM) and shaken for 5 min. On a microplate fluorescence spectrophotometer FLX 800 (Bio-Tek Instruments Inc., Winooski, UT, USA), the fluorescence of 2′,7′-dichlorofluorescein (DCF), the oxidation product from DCFH-DA, was measured at an excitation wavelength of 485 nm and an emission wavelength of 530 nm for 30 min. As a positive control, Trolox, was used.

[2] = system: PTP1B expression in insulin-resistant HepG2 cells; experiment: PTP1B expression level by Western blot; format: cell-based, human
Protocol: (§1) With minor modifications, the insulin resistant HepG2 cell model was developed according to the previous method. In short, in 96-well plats (2 × 10^5 cells/well), HepG2 cells were cultured. When they reached a confluence, 10^−6 M insulin was treated for 24 h on serum-free MEM to induce insulin resistance, then the cells were incubated for 30 min with 100 nM insulin and harvested for assays as described below.
Insulin-resistant HepG2 cells (5 × 10^5 cells/well) were treated for 24 h in 6-well plates with different concentrations of coumarins. The cells were washed with ice-cold PBS three times, collected, then lysed with a sample buffer [50 mM (4-(2-hydroxyethyl)-1-piperazineethanessulfonic acid) pH 7.5, 150 mM NaCl, 2.5 mM EDTA, 0.5% NP-40, 1 mM PMSF, 1 mM DTT, 0.2% aprotinin, 0.5% leupeptin, 20 mM NaF, and 1 mM Na3VO4] on ice after stimulation with 100 nM insulin at 37 °C for 30 min. Insoluble materials were extracted by centrifugation for 20 min at 25,000 × g after incubation for 30 min. An updated Bradford protein assay kit calculated the protein concentrations. Total protein (40 μg) was electrophoresed into a polyvinylidene difluoride (PVDF) membrane by use of a dodecyl sulfate-polyacrylamide gel electrophoresis (SDS-PAGE). In a blocking buffer, membranes were blocked (5% skim milk in Tris-buffered saline containing 0.1% Tween 20 (TBST) and incubated overnight at 4 °C with primary antibodies, followed by incubation at room temperature for 4 h with suitable secondary antibodies. Three times for 30 min with TBST, the membranes were washed. The Supersignal West Pico chemiluminescence substrate (Pierce, Rockford, IL, USA) has been used to visualize the protein bands and pictured on X-ray film (Kodak, Rochester, NY, USA) according to the manufacturer’s instructions. Using CS analyzer software (Atto Corp., Tokyo, Japan), bands were scanned and quantitated and the control was set to 1. As the internal control, β-actin was used. For determining the molecular weights of protein bands, prestained blue protein markers were used. Comparisons were made between mean band densities in same gels. Autoradiography visualized protein bands and measured the intensities using Quantity One software (Bio-Rad Laboratories, Hercules, CA, USA).

[3] = Inhibition of ONOO−-mediated albumin (protein tyrosine) nitration, Western blot; format: biochemical
Protocol: ONOO^−-mediated protein tyrosine nitration was evaluated with minor modifications by using in our previously reported method.

[4] = ONOO− scavenging activity (DHR 123); format: biochemical; conditions: mean ± SEM of triplicate
Protocol: ONOO^− scavenging activity was measured using a slight modification of the method reported by Kooy’s that monitors output of fluorescent rhodamine 123 from non-fluorescent DHR 123 in the presence of ONOO^−. The rhodamine buffer (pH 7.4) consisted of 90 mM sodium chloride, 50 mM sodium phosphate dibasic, 5 mM potassium chloride, 100 µM diethylenetriaminepentaacetic acid and 50 mM sodium phosphate monobasic. DHR 123 final concentration was 5 µM. The buffer used in this assay was prepared and put on ice before use. In 10% DMSO, the samples were dissolved and authentic ONOO^− (10 µM) dissolved in 0.3 N sodium hydroxide was added. Background and final fluorescent intensities were measured after 5 min. The fluorescence intensity of the oxidized DHR 123 was measured with a microplate fluorescence reader (Bio-Tek Instruments, Inc., FLx 800, Winooski, UT, USA) on the excitation and emission wavelengths of 480 and 530 nm, respectively. As a standard control, L-penicillamine was used.

[5] = system: insulin-resistant HepG2 cells; experiment: 2-NBDG glucose uptake assay; format: cell-based, human; conditions: 24 h, insulin-stimulated 2-NBDG uptake
Protocol: as §1
In accordance with a previous method the glucose uptake assay was established with some modifications. Briefly, HepG2 cells were cultured in 96-well plate to confluence and then treated with 10^−6 M insulin for 24 h to induce insulin resistance (based on a 49% decrease in glucose uptake) (data not shown). Different coumarins (5–40 µM) or 10 µM metformin (non-cytotoxic concentration) concentrations were added and incubated for 24 h, followed by 100 nM insulin and cells incubation for 30 min, respectively. 2-NBDG uptake was measured following this incubation. The cells were incubated with 40 μM of 2-NBDG (dissolved in PBS with 1% BSA) for 20 min. The cells were washed thrice with ice-cold PBS to avoid the reaction, and the fluorescence intensity of 2-NBDG was calculated at 485 nm of excitation and 528 nm of emission on a microplate reader (Bio-Tek Instruments Inc., Winooski, VT, USA). Five replication wells have been set up, and three times each experiment has been replicated.

[6] = target: T1, PTP1B (human recombinant) (Homo sapiens, UniProt P18031); experiment: PTP1B inhibitory assay with pNPP substrate, with Dixon and Lineweaver-Burk kinetics; format: biochemical; conditions: for Protein Tyrosine Phosphatase 1B Inhibition Type: determined by Dixon and Lineweaver-Burk plots; for Ki: determined by the Dixon plot, read-out: Protein Tyrosine Phosphatase 1B Ki Value; for IC50: pNPP substrate, mean ± SEM of triplicate, read-out: Protein Tyrosine Phosphatase 1B IC50
T1 construct: purchased Biomol International LP (Plymouth Meeting, Pennsylvania, USA)
T1 sequence (P18031 1-435): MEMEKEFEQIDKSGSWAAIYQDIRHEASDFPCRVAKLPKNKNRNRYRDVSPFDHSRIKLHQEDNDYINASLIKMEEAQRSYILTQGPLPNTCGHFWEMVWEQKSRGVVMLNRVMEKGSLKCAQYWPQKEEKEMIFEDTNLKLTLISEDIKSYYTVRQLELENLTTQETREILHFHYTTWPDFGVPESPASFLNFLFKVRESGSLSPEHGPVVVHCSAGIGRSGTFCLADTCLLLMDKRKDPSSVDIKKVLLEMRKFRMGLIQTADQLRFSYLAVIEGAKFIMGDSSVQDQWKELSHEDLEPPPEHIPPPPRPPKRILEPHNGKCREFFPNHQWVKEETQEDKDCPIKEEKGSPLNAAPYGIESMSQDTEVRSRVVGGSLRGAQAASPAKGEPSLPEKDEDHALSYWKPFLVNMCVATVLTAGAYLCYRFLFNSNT
Protocol: The inhibitory activity of PTP1B has been tested using pNPP previously reported in our paper. The amount of p-nitrophenyl produced after enzymatic dephosphorylation of pNPP was calculated using a microplate spectrophotometer (Molecular Devices) to calculate absorbance at 405 nm.
(§2) Two kinetic methods using Lineweaver-Burk and Dixon plots have been complemented for the determination of the kinetic process. PTP1B inhibition mode was calculated at different pNPP substrate concentration (0.5, 1.0, and 2.0 mM) in the absence or presence of different coumarins test concentrations (0, 0.8, 4.0, and 20.0 µM for (+)-trans-decursidinol; 0, 2.0, 10.0, and 50 µM for Pd-C-I and Pd-C-II; 0, 4.0, 20.0, and 100 µM for Pd-C-III) using Lineweaver-Burk and Dixon plots. By monitoring the effects of different concentrations of the substrates in the Dixon plots (single reciprocal plot), each enzymatic inhibition of test coumarins was assessed. Additionally, in the presence of different concentrations of substrate: 2.5, 1.25, and 0.625 mM pNPG, the Lineweaver-Burk and Dixon plots for α-glucosidase inhibition of coumarins were also performed. The test concentrations of the coumarins in the α-glucosidase kinetic analysis were as follows 0, 7.81, 15.62, 31.25, and 62.5 µM for (+)-trans-decursidinol, Pd-C-I, and Pd-C-II; 0, 15.62, 31.25, 62.5, and 125 µM for Pd-C-III. The PTP1B and α-glucosidase assay methods were the same for both enzymatic procedures. The inhibition constants (Ki) were calculated by interpretation of the Dixon plots, where the value of the x-axis means -Ki.

[7] = target: yeast α-glucosidase (Saccharomyces cerevisiae, UniProt P53341); experiment: α-Glucosidase inhibitory assay with pNPG substrate, with Dixon and Lineweaver-Burk kinetics; format: biochemical; conditions: determined by Dixon and Lineweaver-Burk plots
Protocol: The enzyme inhibition analysis was carried out using the technique previously reported in our paper. The absorbance was recorded at 405 nm immediately afterward using the microplate spectrophotometer (Molecular Devices, Sunnyvale, CA, USA).
as §2

[8] = system: t-BHP-treated HepG2 cells; experiment: Intracellular ROS level in t-BHP-treated HepG2 cells (DCFH-DA); format: cell-based, human; conditions: 200 μM t-BHP; for ROS generation: 10–40 μM
Protocol: A fluorometric assay was used to measure the intracellular ROS level in HepG2 cells applying the oxidant-sensitive fluorescence probe 2, DCFH-DA [47]. In order to determine the extent of intracellular ROS scavenging activity, HepG2 cells were seeded into black 96-well plates at a density of 2.0 × 10^5 cells/well and incubated with coumarins at a concentrations range of 2.5–40 µM for 1 h. To induce ROS production, cells were subsequently exposed to 200 µM tert-butyl hydroperoxide (t-BHP) for 30 min and were then incubated for 30 min with DCFH-DA (20 μM). At an excitation wavelength of 485 nm and an emission wavelength of 530 nm, the resulting fluorescence intensities were measured using a fluorescence microplate reader (FL × 800; Bio-Tek Instruments Inc., Winooski, UT, USA).

[9] = Homo sapiens, HepG2, pretreated 1 h, read-out: ROS production, inhibition

Chain of yeast α-glucosidase (P53341 whole entry): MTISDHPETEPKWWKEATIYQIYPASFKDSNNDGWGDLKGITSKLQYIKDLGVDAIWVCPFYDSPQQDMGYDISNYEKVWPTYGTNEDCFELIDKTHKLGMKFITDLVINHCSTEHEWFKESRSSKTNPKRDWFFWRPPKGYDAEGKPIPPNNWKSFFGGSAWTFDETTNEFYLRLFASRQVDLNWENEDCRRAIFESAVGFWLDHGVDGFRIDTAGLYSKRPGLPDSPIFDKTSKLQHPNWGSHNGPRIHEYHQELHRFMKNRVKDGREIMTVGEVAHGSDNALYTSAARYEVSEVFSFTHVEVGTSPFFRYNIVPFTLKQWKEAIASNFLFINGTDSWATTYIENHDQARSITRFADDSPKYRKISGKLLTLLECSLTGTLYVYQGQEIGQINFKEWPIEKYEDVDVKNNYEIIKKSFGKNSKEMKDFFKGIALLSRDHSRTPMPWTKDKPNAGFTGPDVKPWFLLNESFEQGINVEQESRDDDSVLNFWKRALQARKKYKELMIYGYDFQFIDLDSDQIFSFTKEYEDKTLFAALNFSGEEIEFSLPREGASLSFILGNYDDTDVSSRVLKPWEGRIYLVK

SMILES	IC50 [1]	PTP1B expression ([2]; at 10 and 15 µM, 24 h)	ONOO−-mediated albumin nitration ([3]; pretreatment at 5–40 µM)	IC50 [4]	relative glucose uptake percentage ([5]; 15 µM)	Protein Tyrosine Phosphatase 1B Inhibition Type [6]	Ki [6]	IC50 [6]	fold more active than decursinol ([6]; versus decursinol of the earlier work, enzyme not named in the sentence (PTP1B and α-glucosidase discussed))	α-Glucosidase Inhibition Type [7]	inhibition at 5 µM ([8]; Homo sapiens, HepG2, 5 μM, pretreated 1 h, read-out: ROS production, inhibition)	inhibition at 10 µM [8, 9]	inhibition at 15 µM ([8]; Homo sapiens, HepG2, 15 μM, pretreated 1 h, read-out: ROS production, inhibition)	PTP1B expression ([2]; concentration not given)	ONOO−-mediated albumin nitration ([3]; pretreatment at 12.5–100 µM)	relative glucose uptake percentage ([5]; 40 µM)	ROS generation [8]	PTP1B expression ([2]; at 20 and 40 µM, 24 h)	relative glucose uptake percentage ([5]; 10 µM)
CC1(C)Oc2cc3oc(=O)ccc3cc2[C@@H](O)[C@@H]1O [(+)-trans-decursidinol]	9.77 ± 0.32 µM	diminished PTP1B’s expression	significantly inhibited in a concentration-dependent manner	4.57 ± 0.21 µM	125%	Competitive	2.84 µM	2.33 ± 0.07 µM	25 times	Competitive	75.5%	57.5%	43.4%	–	–	–	–	–	–
CC(C)(S)[C@H](N)C(=O)O [L-Penicillamine, L-penicillamine, reference compound]	–	–	–	1.86 ± 0.11 µM	–	–	–	–	–	–	–	–	–	–	–	–	–	–	–
C/C=C\C(=O)O[C@H]1[C@H](OC(C)=O)c2cc3ccc(=O)oc3cc2OC1(C)C [Pd-C-III]	9.69 ± 0.21 µM	–	–	1.44 ± 0.22 µM	–	Mixed	16 µM	12 ± 0.43 µM	–	Noncompetitive	–	–	–	significantly downregulated PTP1B’s expression	pronounced dose-dependent inhibition	117%	significantly inhibited ROS generation	–	–
CC(C)=CC(=O)O[C@@H]1c2cc3ccc(=O)oc3cc2OC(C)(C)[C@H]1O [Pd-C-II]	10.8 ± 0.73 µM	–	–	3.77 ± 0.15 µM	–	Competitive	9.72 µM	6.17 ± 0.31 µM	–	Mixed	–	–	–	–	pronounced dose-dependent inhibition	120%	significantly inhibited ROS generation	downregulated PTP1B’s expression	–
CC(C)=CC(=O)O[C@H]1[C@H](O)c2cc3ccc(=O)oc3cc2OC1(C)C [Pd-C-I]	6.32 ± 0.41 µM	–	–	1.82 ± 0.44 µM	–	Competitive	6.21 µM	4.32 ± 0.12 µM	–	Mixed	–	–	–	–	pronounced dose-dependent inhibition	128%	significantly inhibited ROS generation	downregulated PTP1B’s expression	–
Cc1c(C)c2c(c(C)c1O)CCC(C)(C(=O)O)O2 (centres unmarked) [Trolox, trolox, reference compound]	3.29 ± 0.26 µM	–	–	–	–	–	–	–	–	–	–	~49%	–	–	–	–	–	–	–
CN(C)C(=N)N=C(N)N [metformin, reference compound]	–	–	–	–	–	–	–	–	–	–	–	–	–	–	–	–	–	–	129%

From PMC7919472, “Insulin–Mimetic Dihydroxanthyletin-Type Coumarins from Angelica decursiva with Protein Tyrosine Phosphatase 1B and α-Glucosidase Inhibitory Activities and Docking Studies of Their Molecular Mechanisms” (Antioxidants, 2021)
